Experimental data: ChEMBL document CHEMBL1152027, “The prooligonucleotide approach. I: Esterase-mediated reversibility of dithymidine S-alkyl-phosphorothiolates to dithymidine phosphorothioates” (Bioorg Med Chem Lett, 1995)

What was measured:
[1] = Half-life in the culture medium (RPMI 1640+10% fetal calf serum FCS); assay type: ADME, cell-free, Bos taurus; conditions: cattle
[2] = Half-life in the CEM cell extracts; assay type: ADME, CCRF-CEM; conditions: human

Row | Compound | half-life [1] | half-life [2]
1 | CC(=O)SCSP(=O)(OCc1oc(-n2cc(C)c(=O)[nH]c2=O)cc1O)Oc1cc(-n2cc(C)c(=O)[nH]c2=O)oc1CO (stereo unspecified) | 1 h | < 0.0833 h
2 | Cc1cn(-c2cc(O)c(COP(=O)(Oc3cc(-n4cc(C)c(=O)[nH]c4=O)oc3CO)SCOC(=O)C(C)(C)C)o2)c(=O)[nH]c1=O (stereo unspecified) | 6 h | 0.667 h
3 | CC(=O)SCCSP(=O)(OCc1oc(-n2cc(C)c(=O)[nH]c2=O)cc1O)Oc1cc(-n2cc(C)c(=O)[nH]c2=O)oc1CO (stereo unspecified) | 7 h | < 0.0833 h
